Columns and labels:
[1] = system: HCT-116 cell line; experiment: Inhibition of cell growth, MTT tetrazolium salt assay; assay type: cell-based; conditions: for IC50: Homo sapiens, HCT-116, 120 h, MTT, three to five days
Summary of the method: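 Cells in McCoy's 5A medium were given 4 h before compound addition in 0.5% (v/v) DMSO, then incubated 3–5 days at 37 °C, 5% CO2. After 4 h with 0.2 mg/mL MTT, DMSO-solubilized formazan was read at 540 nm; 50% and 90% growth-inhibitory concentrations came from semi-log plots against vehicle controls.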

[2] = biological target: T1, human CDK4/cyclin D3 (Homo sapiens, UniProt P11802); experiment: Inhibition of CDK4/cyclin D retinoblastoma kinase activity (Ki; % inhibition); assay type: biochemical; conditions: for Ki: apparent Ki, CDK4/cyclin D3, Rb substrate
T1 construct: made in house; host or cells: insect cells co-infected with baculovirus vectors
Summary of the method: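 Radiometric filter-binding read-out: Rb residues 386-928 phosphorylated by 5 nM CDK4/cyclin D3(1-264) from baculovirus-infected insect cells, 25 μM ATP, HEPES pH 7.4, 30 °C. Run 20 min, or 60 min for tight-binding inhibitors. Screening at 30 nM theoretical compound; apparent Ki by competitive-inhibition fitting.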

[3] = biological target: T2, CDK2/cyclin A (Homo sapiens, UniProt P24941); experiment: Inhibition of CDK2/cyclin A retinoblastoma kinase activity (Ki; % inhibition); assay type: biochemical; conditions: for Ki: apparent Ki, CDK2/cyclin A, Rb substrate
T2 construct: made in house; host or cells: CDK2: insect cells (baculovirus); cyclin A: E. coli
Summary of the method: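 Apparent Ki values came from fitting concentration-dependent activity data to competitive (or competitive tight-binding) models, and % inhibition from single 30 nM screens of library compounds. Activity was measured as ³²P/³³P incorporation from 25 μM ATP into an Rb substrate by 10 or 19 nM CDK2/delta cyclin A at 30 °C over 60–75 min, pH 7.4.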

[4] = HCT-116 cells, 0.25 μM compound

T1 sequence (P11802 whole entry): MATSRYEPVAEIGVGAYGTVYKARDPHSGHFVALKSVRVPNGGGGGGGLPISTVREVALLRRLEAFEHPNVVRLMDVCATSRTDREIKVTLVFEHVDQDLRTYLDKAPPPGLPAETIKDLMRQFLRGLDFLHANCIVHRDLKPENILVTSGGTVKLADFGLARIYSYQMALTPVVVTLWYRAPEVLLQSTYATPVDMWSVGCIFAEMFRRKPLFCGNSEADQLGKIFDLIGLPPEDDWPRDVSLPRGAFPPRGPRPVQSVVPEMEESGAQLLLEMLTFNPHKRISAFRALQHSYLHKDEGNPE
T1 sequence (P30281 1-264 partner limits assumed): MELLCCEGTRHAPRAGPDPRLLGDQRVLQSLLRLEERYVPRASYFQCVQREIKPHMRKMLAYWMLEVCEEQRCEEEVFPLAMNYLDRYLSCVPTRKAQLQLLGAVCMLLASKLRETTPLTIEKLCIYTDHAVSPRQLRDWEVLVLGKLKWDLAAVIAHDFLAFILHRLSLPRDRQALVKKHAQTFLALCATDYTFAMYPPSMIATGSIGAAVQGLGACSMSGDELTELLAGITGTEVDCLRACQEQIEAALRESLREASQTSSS

| SMILES | HCT-116 % Inhibition at 0.1 μM ([1]; HCT-116 cells, 0.1 μM compound) [%] | HCT-116 % Inhibition at 0.25 μM [1, 4] [%] | CDK4 % Inhibition at 0.03 μM ([2]; 0.03 μM compound) [%] | CDK2 % Inhibition at 0.03 μM ([3]; 0.03 μM compound) [%] | HCT-116 % Inhibition at 0.25 μM ([1]; HCT-116, at 0.25 μM) [%] | CDK4 % Inhibition at 0.03 μM ([2]; at 0.03 μM) [%] | CDK2 % Inhibition at 0.03 μM ([3]; at 0.03 μM) [%] | further results |
| --- | --- | --- | --- | --- | --- | --- | --- | --- |
| C[C@@H](CNC(=O)c1ccc(Nc2nc(N)c(C(=O)c3c(F)cccc3F)s2)cc1)c1ccccc1 [Example G375] | 26 | 62 | −3 | 10 |  |  |  |  |
| COc1ccc(NC(=O)c2ccc(Nc3nc(N)c(C(=O)c4c(F)cccc4F)s3)cc2)cc1F [Example G347] | 21 | 53 | 15 | 13 |  |  |  |  |
| NC(=O)C1CCCN(C(=O)c2ccc(Nc3nc(N)c(C(=O)c4c(F)cccc4F)s3)cc2)C1 (centres unmarked) [Example G41] |  |  |  |  | 50 | 10 | 11 |  |
| CN(C)CCNC(=O)c1ccc(Nc2nc(N)c(C(=O)c3c(Cl)cccc3Cl)s2)cc1 [Example B4, 4-[4-Amino-5-(2,6-dichloro-benzoyl)-thiazol-2-ylamino]-N-(2-dimethylamino-ethyl)-benzamide] |  |  |  |  |  |  |  | IC50 [1]: 520 nM; Ki [2]: 8 nM; Ki [3]: 220 nM |
| Nc1nc(Nc2ccc(C(=O)NCc3cccnc3)cc2)sc1C(=O)c1c(F)cccc1F [Example G188] |  |  |  |  | 51 | 39 | 29 | HCT-116 % Inhibition at 0.1 μM ([1]; HCT-116, at 0.1 μM): 17% |
| Nc1nc(Nc2ccc(C(=O)NC3c4ccccc4CC3O)cc2)sc1C(=O)c1c(F)cccc1F (centres unmarked) [Example G376] | 27 | 64 | −6 | 20 |  |  |  |  |
| Nc1nc(Nc2ccc(C(=O)NCc3cccc(Cl)c3Cl)cc2)sc1C(=O)c1c(F)cccc1F [Example G216] | 16 | 54 | 36 | 29 |  |  |  |  |
| Nc1nc(Nc2ccc(C(=O)Nc3cccc(SC(F)(F)F)c3)cc2)sc1C(=O)c1c(F)cccc1F [Example G377] | 25 | 55 | −1 | 10 |  |  |  |  |
| CN(C)c1ccc(NC(=O)c2ccc(Nc3nc(N)c(C(=O)c4c(F)cccc4F)s3)cc2)cc1 [Example A16, 4-[4-Amino-5-(2,6-difluoro-benzoyl)-thiazol-2-ylamino]-N-(4-dimethylamino-phenyl)-benzamide] |  |  |  |  |  |  |  | IC50 [1]: 170 nM; Ki [2]: 25 nM; Ki [3]: 68 nM |
| CCOC(=O)/C=C/c1ccc(NC(=O)c2ccc(Nc3nc(N)c(C(=O)c4c(F)cccc4F)s3)cc2)cc1 [Example G114] |  |  |  |  | 48 | 11 | −3 | HCT-116 % Inhibition at 0.1 μM ([1]; HCT-116, at 0.1 μM): 0% |
| CC(CNC(=O)c1ccc(Nc2nc(N)c(C(=O)c3c(F)cccc3F)s2)cc1)N(C)C (centres unmarked) [Example G92] |  |  |  |  | 98 | 10 | −7 | HCT-116 % Inhibition at 0.1 μM ([1]; HCT-116, at 0.1 μM): 85% |
| COC(CNC(=O)c1ccc(Nc2nc(N)c(C(=O)c3c(F)cccc3F)s2)cc1)OC [Example G97] |  |  |  |  | 56 | 11 | 2 | HCT-116 % Inhibition at 0.1 μM ([1]; HCT-116, at 0.1 μM): 28% |
| Nc1nc(Nc2ccc(C(=O)Nc3ccccc3CCO)cc2)sc1C(=O)c1c(F)cccc1F [Example G207] | 15 | 66 | 15 | 15 |  |  |  |  |
| Nc1nc(Nc2ccc(C(=O)NCCCCCCO)cc2)sc1C(=O)c1c(F)cccc1F [Example G358] | 21 | 55 | 7 | −5 |  |  |  |  |
| Nc1nc(Nc2ccc(C(=O)N3CCN(CCO)CC3)cc2)sc1C(=O)c1c(F)cccc1F [Example G257] | 33 | 51 | 2 | −43 |  |  |  |  |
| Cc1cc(F)c(C(=O)c2sc(Nc3ccc(C(=O)NC[C@@H]4CCCN4C)cc3)nc2N)c(F)c1 [Example A68, 4-{4-Amino-5-(2,6-difluoro-4-methyl-benzoyl)-thiazol-2-ylamino}-N-(1-methyl-pyrrolidin-2S-ylmethyl)-benzamide] |  |  |  |  |  |  |  | IC50 [1]: 75 nM; Ki [2]: 45 nM; Ki [3]: 8.5 nM |

| SMILES | HCT-116 % Inhibition at 0.1 μM ([1]; HCT-116 cells, 0.1 μM compound) [%] | HCT-116 % Inhibition at 0.25 μM [1, 4] [%] | CDK4 % Inhibition at 0.03 μM ([2]; 0.03 μM compound) [%] | CDK2 % Inhibition at 0.03 μM ([3]; 0.03 μM compound) [%] | HCT-116 % Inhibition at 0.25 μM ([1]; HCT-116, at 0.25 μM) [%] | CDK4 % Inhibition at 0.03 μM ([2]; at 0.03 μM) [%] | CDK2 % Inhibition at 0.03 μM ([3]; at 0.03 μM) [%] | further results |
| --- | --- | --- | --- | --- | --- | --- | --- | --- |
| CC(C)NC(=O)CN1CCN(C(=O)c2ccc(Nc3nc(N)c(C(=O)c4c(F)cccc4F)s3)cc2)CC1 [Example G335] | 3 | 42 | 21 | 2 |  |  |  |  |
| Cc1ccc(O)c(NC(=O)c2ccc(Nc3nc(N)c(C(=O)c4c(F)cccc4F)s3)cc2)c1 [Example G396] | 14 | 67 | 9 | −6 |  |  |  |  |
| CCCCN(CC#N)C(=O)c1ccc(Nc2nc(N)c(C(=O)c3c(F)cccc3F)s2)cc1 [Example G9] |  |  |  |  | 46 | 2 | −1 |  |
| Nc1nc(Nc2ccc(C(=O)N3CCCC(CO)C3)cc2)sc1C(=O)c1c(F)cccc1F (centres unmarked) [Example G48] |  |  |  |  | 50 | 3 | 1 |  |
| CN(C)C1CCN(C(=O)c2ccc(Nc3nc(N)c(C(=O)c4c(F)cccc4F)s3)cc2)C1 (centres unmarked) [Example G37] |  |  |  |  |  | 25 | 11 | HCT-116 % Inhibition at 0.25 μM ([1]; HCT-116, at 0.25 μM, 0.25 µM): 65% |
| CCCCN(C)C(=O)c1ccc(Nc2nc(N)c(C(=O)c3c(F)cccc3F)s2)cc1 [Example G218] | 11 | 52 | 19 | 8 |  |  |  |  |
| CC1CC(C)CN(C(=O)c2ccc(Nc3nc(N)c(C(=O)c4c(F)cccc4F)s3)cc2)C1 (centres unmarked) [Example G273] | 17 | 45 | −2 | −33 |  |  |  |  |
| CCN1CCCC1CNC(=O)c1ccc(Nc2nc(N)c(C(=O)c3c(F)cccc3F)s2)cc1 (centres unmarked) [Example G154] |  |  |  |  | 91 | 34 | 10 | HCT-116 % Inhibition at 0.1 μM ([1]; HCT-116, at 0.1 μM): 17% |
| CC(C)CNC(=O)c1ccc(Nc2nc(N)c(C(=O)c3c(F)cccc3F)s2)cc1 [Example G126] |  |  |  |  | 53 | 7 | 3 | HCT-116 % Inhibition at 0.1 μM ([1]; HCT-116, at 0.1 μM): 0% |
| Cc1cccc(CNC(=O)c2ccc(Nc3nc(N)c(C(=O)c4c(F)cccc4F)s3)cc2)c1 [Example G360] | 18 | 73 | 9 | 31 |  |  |  |  |
| CN(CCc1ccncc1)C(=O)c1ccc(Nc2nc(N)c(C(=O)c3c(F)cccc3F)s2)cc1 [Example G58] |  |  |  |  | 53 | 17 | 19 |  |
| Nc1nc(Nc2ccc(C(=O)N[C@@H]3CCc4ccccc43)cc2)sc1C(=O)c1c(F)cccc1F [Example G176] |  |  |  |  | 62 | 21 | 22 | HCT-116 % Inhibition at 0.1 μM ([1]; HCT-116, at 0.1 μM): 32% |
| CC(=O)c1cccc(NC(=O)c2ccc(Nc3nc(N)c(C(=O)c4c(F)cccc4F)s3)cc2)c1 [Example G189] |  |  |  |  | 56 | 18 | 10 | HCT-116 % Inhibition at 0.1 μM ([1]; HCT-116, at 0.1 μM): 13% |
| C[C@@H](CNC(=O)c1ccc(Nc2nc(N)c(C(=O)c3c(F)cccc3F)s2)cc1)N(C)C [Example A42, 4-[4-Amino-5-(2,6-difluoro-benzoyl)-thiazol-2-ylamino]-N-(2S-dimethylamino-propyl)-benzamide] |  |  |  |  |  |  |  | IC50 [1]: 150 nM; Ki [2]: 23 nM; Ki [3]: 165 nM |
| CN(C)CCCN1CCN(C(=O)c2ccc(Nc3nc(N)c(C(=O)c4c(F)cccc4F)s3)cc2)CC1 [Example G357] | 17 | 88 | 17 | −14 |  |  |  |  |
| Nc1nc(Nc2ccc(C(=O)NCCCCCO)cc2)sc1C(=O)c1c(F)cccc1F [Example G274] | 15 | 47 | 5 | −4 |  |  |  |  |

Reference: US6720346B2, “Thiazole benzamide derivatives and pharmaceutical compositions for inhibiting cell proliferation” (Agouron Pharmaceuticals, Inc., priority 2001, dated 2004)
